This is an account of results in patent publication US20210379066A1, “COMBINATIONS OF POSITIVE ALLOSTERIC MODULATORS AND NICOTINIC ACETYLCHOLINE RECEPTOR AGONISTS FOR TREATING OCULAR CONDITIONS” (Oyster Point Pharma, Inc., priority 2018, published 2021).

Common to all, as to format: cell-based
Assay [1] concerns the target T1, human alpha4beta2 nAChRs (Homo sapiens, UniProt P17787+P43681).
T1 construct: expressed in transfected cells; host or cells: Xenopus laevis oocytes (cDNA injection)
The experiment in a line: Desensitization by sustained (1 hour) agonist exposure and recovery, without and with PAM, Xenopus oocytes (Example 1). As to conditions: no PAM; for desensitization / inhibition of the response by sustained agonist exposure: 1 hour exposure, 1 mM compound 1 hemi-galactarate dihydrate or 300 μM varenicline tartrate; for recovery of the response after wash: after 1 hour agonist exposure, 3 hours wash.

The target of assay [2] is T2, human nAChR alpha3alpha5beta4 (Homo sapiens, UniProt P30532+P30926+P32297).
T2 construct: expressed in transfected cells; host or cells: Xenopus laevis oocytes (cDNA injection)
Description: Agonist activity, two-electrode voltage clamp in Xenopus oocytes (Examples 2 and 5). As to conditions: for EC50: Example 2; for agonist character: versus ACh response. As to the method:
(§1) All experiments were carried out at human nAChRs expressed in Xenopus oocytes using the method of cDNA expression. Xenopus oocytes were prepared and injected using standard procedures.
(§2) Briefly, ovaries were harvested from Xenopus Laevis females that have been deeply anesthetized by cooling at 4° C. and Tricaine methanesulfonate (MS-222 at a concentration of 150 mg/L) in sodium bicarbonate (300 mg/L). Once anesthetized the animal was decapitated and pithed following the rules of animal rights from the Geneva canton. A small piece of ovary was isolated for immediate preparation while the remaining part was placed at 4° C. in a sterile Barth solution containing in mM NaCl 88, KCl 1, NaHCO32.4, HEPES 10, MgSO4.7H2O 0.82, Ca(NO3)2.4H2O 0.33, CaCl2.6H2O 0.41, at pH 7.4, and supplemented with 20 μg/ml of kanamycin, 100 unit/ml penicillin. All recordings were performed at 18° C. and cells superfused with OR2 medium containing in mM: NaCl 88, KCl 2.5, HEPES 5, CaCl2.2H2O 1.8, MgCl2.6H2O 1, pH 7.4.
(§3) Currents evoked by ACh or other agonists were recorded using an automated process equipped with standard two-electrode voltage-clamp configuration (TEVC). Data were captured and analyzed using a HiQScreen proprietary data acquisition and analysis software running under Matlab (Mathworks Inc.).
(§4) See Example 1. […] The test concentration of acetylcholine chloride was 1280 micromolar.
(§5) Injections of cDNAs encoding for the human alpha3beta4, alpha3alpha5beta4, alpha4beta2, and alpha7 were performed in at least 95 oocytes were performed using a proprietary automated injection and receptor expression examined at least two days later. Oocytes were poked with two electrodes and their membrane potential maintained, unless indicated, at −80 mV throughout the experiment.
(§6) A protocol to determine agonistic activity in the oocytes expressing the nAChRs was developed. The cells were exposed to a series of increasing concentrations of a compound agonist for 10 seconds each at two minute intervals. The current evoked from exposure to the agonist at each concentration was recorded. For oocytes expressing alpha7 nAChRs, exposure to the agonist was reduced to 5 seconds. This process was repeated for each agonist tested against each type of nAChR expressing cell.
(§7) To evaluate the agonistic properties of compound 1 hemi-galactarate dihydrate a protocol of brief exposures to a series of growing concentrations of compound 1 hemi-galactarate dihydrate was used.
(§8) Agonist Preparation: See Example 1. […] The test concentration of acetylcholine chloride was 1280 micromolar.
(§9) Experimental Procedures: Injections of cDNAs encoding for the human alpha3beta4, alpha3alpha5beta4, alpha4beta2, alpha4alpha6beta2, and alpha7 were performed in at least 95 oocytes using a proprietary automated injection device. Cellular receptor expression was examined at least two days later. Oocytes were poked with two electrodes and their membrane potential maintained, unless indicated, at −80 mV throughout the experiment.
as §6, with “developed. Oocytes expressing a nAChR subtype were exposed to a brief test pulse of acetylcholine (1280 micromolar) while the holding current and response was evaluated. Cells displaying robust currents were washed for 90 seconds.” for “developed.”, “were then” for “were”, “nAChR” for “compound”, “intervals. The nAChR agonist test concentrations were 0.1, 0.3, 1, 3, 10, 30, 100, 300 (micromolar).” for “intervals.”

Another assay concerns the target T3, human nAChR alpha3beta4 (Homo sapiens, UniProt P30926+P32297).
T3 construct: expressed in transfected cells; host or cells: Xenopus laevis oocytes (cDNA injection)
The assay is described as above. As to conditions: for agonist character: versus ACh response. As to the method: as §1, §2, §3, §4, §5, §6, §7, §8, §9
as §6, with “developed. Oocytes expressing a nAChR subtype were exposed to a brief test pulse of acetylcholine (1280 micromolar) while the holding current and response was evaluated. Cells displaying robust currents were washed for 90 seconds.” for “developed.”, “were then” for “were”, “nAChR” for “compound”, “intervals. The nAChR agonist test concentrations were 0.1, 0.3, 1, 3, 10, 30, 100, 300 (micromolar).” for “intervals.”

A further assay addresses T4, human nAChR alpha4beta2 (Homo sapiens, UniProt P17787+P43681).
T4 construct: expressed in transfected cells; host or cells: Xenopus laevis oocytes (cDNA injection)
The assay is described as above. As to conditions: for EC50: Example 2; for effect on the subsequent ACh-evoked current: after exposure to the agonist concentration series; for agonist character: versus ACh response. As to the method:
as §1, §2, §3, §4, §5, §6, §7, §8, §9
as §6, with “developed. Oocytes expressing a nAChR subtype were exposed to a brief test pulse of acetylcholine (1280 micromolar) while the holding current and response was evaluated. Cells displaying robust currents were washed for 90 seconds.” for “developed.”, “were then” for “were”, “nAChR” for “compound”, “intervals. The nAChR agonist test concentrations were 0.1, 0.3, 1, 3, 10, 30, 100, 300 (micromolar).” for “intervals.”

The target of assay [3] is T5, human alpha3beta4 nAChRs (Homo sapiens, UniProt P30926+P32297).
T5 construct: expressed in transfected cells; host or cells: Xenopus laevis oocytes (cDNA injection)
The experiment in a line: Antagonistic activity / desensitization, cumulative exposure in the low concentration range (Example 2). As to conditions: concentrations up to 300 nM.

For assay [4], the target named is T5, human alpha3beta4 nAChRs. The experiment in a line: Sustained exposure to 300 μM varenicline tartrate and its recovery (Example 2).
Assay [5] deals with T1, human alpha4beta2 nAChRs. The assay is described as above. As to conditions: 36 minutes wash.
The target in another assay is T6, human nAChR alpha7 (Homo sapiens, UniProt P36544).
T6 construct: expressed in transfected cells; host or cells: Xenopus laevis oocytes (cDNA injection)
Description: Agonist activity, two-electrode voltage clamp in Xenopus oocytes (Examples 2 and 5). As to conditions: for agonist character: versus ACh response. On the procedure: as §1, §2, §3, §4, §5, §6, §7, §8, §9
as §6, with “developed. Oocytes expressing a nAChR subtype were exposed to a brief test pulse of acetylcholine (1280 micromolar) while the holding current and response was evaluated. Cells displaying robust currents were washed for 90 seconds.” for “developed.”, “were then” for “were”, “nAChR” for “compound”, “intervals. The nAChR agonist test concentrations were 0.1, 0.3, 1, 3, 10, 30, 100, 300 (micromolar).” for “intervals.”

In assay [6] the target is T7, human alpha3alpha5beta4 nAChRs (Homo sapiens, UniProt P30532+P30926+P32297).
T7 construct: expressed in transfected cells; host or cells: Xenopus laevis oocytes (cDNA injection)
The experiment in a line: Antagonistic activity / desensitization, cumulative exposure in the low concentration range (Example 2). As to conditions: nanomolar range, up to 300 nM; dihydrate.

The target in assay [7] is T1, human alpha4beta2 nAChRs. The assay is described as above. As to conditions: nanomolar range, up to 300 nM; dihydrate.
The target in another assay is T8, human alpha7 nAChRs (Homo sapiens, UniProt P36544).
T8 construct: expressed in transfected cells; host or cells: Xenopus laevis oocytes (cDNA injection)
The description is as above. As to conditions: concentrations up to 300 nM; dihydrate.

[8] abbreviates: listed as Compound 1 hemi-galactarate dihydrate, dihydrate.

Entries after “also recorded” stand apart in the source; their conditions may differ. Like-named read-outs stand apart in the source and are kept apart here.

T4 sequence (P43681 29-627 limits assumed): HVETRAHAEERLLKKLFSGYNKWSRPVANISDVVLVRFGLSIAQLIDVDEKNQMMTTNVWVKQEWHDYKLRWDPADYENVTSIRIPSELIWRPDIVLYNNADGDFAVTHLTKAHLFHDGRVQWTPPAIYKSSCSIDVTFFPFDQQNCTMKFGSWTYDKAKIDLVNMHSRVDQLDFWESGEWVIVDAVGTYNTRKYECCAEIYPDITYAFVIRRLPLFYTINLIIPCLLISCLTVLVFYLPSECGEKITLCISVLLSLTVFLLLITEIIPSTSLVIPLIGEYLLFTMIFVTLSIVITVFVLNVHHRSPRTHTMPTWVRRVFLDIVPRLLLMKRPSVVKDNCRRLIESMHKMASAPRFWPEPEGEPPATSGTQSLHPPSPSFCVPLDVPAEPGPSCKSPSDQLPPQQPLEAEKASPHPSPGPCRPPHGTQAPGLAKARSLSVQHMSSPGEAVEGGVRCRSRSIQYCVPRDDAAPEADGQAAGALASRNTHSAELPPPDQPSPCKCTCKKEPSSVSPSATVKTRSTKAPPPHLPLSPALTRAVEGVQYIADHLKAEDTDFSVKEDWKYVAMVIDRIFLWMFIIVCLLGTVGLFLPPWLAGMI
T4 sequence (P17787 26-502): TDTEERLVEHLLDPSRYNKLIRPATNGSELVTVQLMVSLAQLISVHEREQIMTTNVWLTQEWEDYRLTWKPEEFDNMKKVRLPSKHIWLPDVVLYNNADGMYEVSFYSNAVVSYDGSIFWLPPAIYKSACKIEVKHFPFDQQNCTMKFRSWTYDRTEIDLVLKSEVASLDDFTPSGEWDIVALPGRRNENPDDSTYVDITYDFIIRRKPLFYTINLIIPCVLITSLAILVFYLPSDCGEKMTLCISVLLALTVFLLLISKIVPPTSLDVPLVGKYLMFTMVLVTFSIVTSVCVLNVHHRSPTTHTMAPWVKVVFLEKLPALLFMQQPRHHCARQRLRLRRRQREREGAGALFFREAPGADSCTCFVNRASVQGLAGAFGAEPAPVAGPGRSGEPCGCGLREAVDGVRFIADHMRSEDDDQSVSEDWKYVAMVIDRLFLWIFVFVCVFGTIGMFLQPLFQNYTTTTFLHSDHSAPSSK
T1 sequence (P43681 29-627 limits assumed): as the sequence (P43681 29-627 limits assumed) above
T1 sequence (P17787 26-502): as the sequence (P17787 26-502) above
T5 sequence (P32297 32-505): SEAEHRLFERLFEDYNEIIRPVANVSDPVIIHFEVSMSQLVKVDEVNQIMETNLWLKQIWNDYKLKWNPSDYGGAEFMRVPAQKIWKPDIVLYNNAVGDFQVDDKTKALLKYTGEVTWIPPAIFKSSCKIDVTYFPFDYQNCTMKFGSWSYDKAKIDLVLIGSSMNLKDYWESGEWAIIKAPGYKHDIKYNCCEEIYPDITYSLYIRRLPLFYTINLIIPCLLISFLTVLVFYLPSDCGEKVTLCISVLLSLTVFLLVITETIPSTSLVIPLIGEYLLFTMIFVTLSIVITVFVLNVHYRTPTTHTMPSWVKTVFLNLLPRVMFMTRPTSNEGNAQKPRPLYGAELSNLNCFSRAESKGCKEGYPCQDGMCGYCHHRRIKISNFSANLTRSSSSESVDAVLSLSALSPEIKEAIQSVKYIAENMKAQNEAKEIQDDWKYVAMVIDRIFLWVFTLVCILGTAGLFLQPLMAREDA
T5 sequence (P30926 22-498): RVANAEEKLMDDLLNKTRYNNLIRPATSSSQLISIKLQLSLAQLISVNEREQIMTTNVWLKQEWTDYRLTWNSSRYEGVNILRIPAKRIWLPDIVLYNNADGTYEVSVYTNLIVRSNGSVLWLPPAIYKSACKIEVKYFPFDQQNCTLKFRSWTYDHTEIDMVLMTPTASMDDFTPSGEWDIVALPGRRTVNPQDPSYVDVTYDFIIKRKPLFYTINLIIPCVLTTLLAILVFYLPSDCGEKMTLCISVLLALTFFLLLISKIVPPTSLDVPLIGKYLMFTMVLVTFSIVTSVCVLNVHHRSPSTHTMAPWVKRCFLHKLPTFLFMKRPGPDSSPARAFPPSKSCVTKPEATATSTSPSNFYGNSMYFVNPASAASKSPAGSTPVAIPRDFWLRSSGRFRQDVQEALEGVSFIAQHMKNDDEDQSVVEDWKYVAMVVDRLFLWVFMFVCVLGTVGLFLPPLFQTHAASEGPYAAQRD
T2 sequence (P32297 32-505): as the sequence (P32297 32-505) above
T2 sequence (P30532 23-468): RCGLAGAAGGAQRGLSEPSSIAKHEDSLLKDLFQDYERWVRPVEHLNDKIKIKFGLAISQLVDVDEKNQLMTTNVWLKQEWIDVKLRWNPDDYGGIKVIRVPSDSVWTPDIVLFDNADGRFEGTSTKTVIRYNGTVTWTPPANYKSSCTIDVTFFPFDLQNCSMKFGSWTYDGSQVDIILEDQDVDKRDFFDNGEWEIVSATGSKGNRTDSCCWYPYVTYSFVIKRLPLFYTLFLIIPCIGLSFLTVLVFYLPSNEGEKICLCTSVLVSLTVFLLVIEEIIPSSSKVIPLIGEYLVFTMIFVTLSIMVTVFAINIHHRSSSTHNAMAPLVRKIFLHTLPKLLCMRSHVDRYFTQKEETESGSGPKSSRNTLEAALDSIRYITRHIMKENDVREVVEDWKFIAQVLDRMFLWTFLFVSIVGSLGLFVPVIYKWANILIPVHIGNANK
T2 sequence (P30926 22-498): as the sequence (P30926 22-498) above
T3 sequence (P32297 32-505): as the sequence (P32297 32-505) above
T3 sequence (P30926 22-498): as the sequence (P30926 22-498) above
T6 sequence (P36544 23-502): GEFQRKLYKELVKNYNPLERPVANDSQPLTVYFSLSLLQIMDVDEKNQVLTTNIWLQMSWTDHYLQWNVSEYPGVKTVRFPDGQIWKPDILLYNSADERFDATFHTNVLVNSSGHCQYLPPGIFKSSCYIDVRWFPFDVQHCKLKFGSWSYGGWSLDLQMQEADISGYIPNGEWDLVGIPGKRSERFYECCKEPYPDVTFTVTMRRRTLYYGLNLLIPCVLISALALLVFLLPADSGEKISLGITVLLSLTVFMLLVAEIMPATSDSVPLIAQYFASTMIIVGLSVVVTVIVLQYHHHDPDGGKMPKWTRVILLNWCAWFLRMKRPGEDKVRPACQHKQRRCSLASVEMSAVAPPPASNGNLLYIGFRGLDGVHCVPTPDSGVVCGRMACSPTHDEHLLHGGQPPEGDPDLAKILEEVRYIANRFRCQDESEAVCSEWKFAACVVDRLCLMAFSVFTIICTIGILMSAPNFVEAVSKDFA
T7 sequence (P32297 32-505): as the sequence (P32297 32-505) above
T7 sequence (P30532 23-468): as the sequence (P30532 23-468) above
T7 sequence (P30926 22-498): as the sequence (P30926 22-498) above
T8 sequence (P36544 23-502): as the sequence (P36544 23-502) above

“varenicline tartrate [reference compound]”: the “desensitization / inhibition of the response by sustained agonist exposure” value at human alpha4beta2 nAChRs [1] is “profound inhibition; also recorded: major desensitization; also recorded: sustained inhibition; also recorded: major inhibition”. The “recovery of the response after wash” value at human alpha4beta2 nAChRs [1] is listed as “could not be removed even after a three-hour wash period; also recorded: no significant recovery; also recorded: absence of recovery”. Besides, the EC50 result (in [2]; at human nAChR alpha3beta4; at human nAChR alpha4beta2) was “low micromolar range” each time. Moreover, the agonist character entry in [2] is reported as “partial agonist”; on human nAChR alpha3beta4, “partial agonist”; at human nAChR alpha4beta2 it was “partial agonist”; on human nAChR alpha4beta2 (listed as Varenicline tartrate), “very poor agonist”. Further, the “effect on the subsequent ACh-evoked current” value on human nAChR alpha4beta2 is listed as “major inhibition”. Also, at human alpha3beta4 nAChRs [3], the “inhibition of the ACh-evoked current by sustained exposure” value is listed as “very modest effect; also recorded: no significant inhibition”. Further, the recovery from desensitization result at human alpha3beta4 nAChRs [4] (300 μM, 36 minutes wash) was “absence of recovery; also recorded: cannot be recovered even after 36 minutes wash”; at human alpha4beta2 nAChRs [5] it was “absence of recovery; also recorded: cannot be recovered even after 36 minutes wash”. Also, the “response evoked by 300 μM agonist” value at human alpha3beta4 nAChRs [4] (applied during three minutes) is given as “larger current amplitude; also recorded: rather large response”.
Take `C(=C\[C@H]1CCNC1)/c1cncnc1` [compound 1 hemi-galactarate dihydrate, (R)-5-((E)-2-pyrrolidin-3-ylvinyl)pyrimidine hemigalactarate dihydrate]: at human alpha4beta2 nAChRs [1] (dihydrate), the “desensitization / inhibition of the response by sustained agonist exposure” value is on record as “no long-lasting desensitization; also recorded: only a modest inhibition; also recorded: does not cause a long-lasting inhibition; also recorded: no long-lasting inhibition”. The “recovery of the response after wash” value at human alpha4beta2 nAChRs [1] was “almost full recovery”. In addition, the “response after 18 hours recovery” value on human alpha4beta2 nAChRs [1] (after 1 hour exposure to 1 mM agonist) is “significant increase of the response”. For the same molecule, the “percent of the maximal ACh-evoked currents” value (in assay [2] (ACh 1280 micromolar); at human nAChR alpha3beta4 (ACh 1280 micromolar)) was “about 94%” each time. In addition, the EC50 in assay [2] (read-out: EC50) was 32.1 ± 2.16 µM; at human nAChR alpha3beta4 (read-out: EC50) it was 42.1 ± 5.36 µM; on human nAChR alpha4beta2 (read-out: EC50), 48.8 ± 17.4 µM; on human nAChR alpha7 (Example 2, value for compound 1 salt only an estimation), 1260 ± 500 µM. For the same molecule, the agonist character entry in [2] (setting [8]) is reported as “almost as a full agonist”; at human nAChR alpha3beta4 (setting [8]), “almost as a full agonist”; at human nAChR alpha4beta2 (setting [8]), “more potent agonist than ACh”; at human nAChR alpha7 (dihydrate), “poor agonist”; on human nAChR alpha7 (setting [8]), “more potent agonist than ACh”. For the same molecule, the “evoked currents larger than the maximal ACh responses” value at human nAChR alpha4beta2 is “about 2 fold”. Also, at human nAChR alpha4beta2 (dihydrate), the “effect on the subsequent ACh-evoked current” value is listed as “enhanced”. Moreover, at human nAChR alpha7 (at 300 μM (300 micromolar) agonist, dihydrate), the “percent of the maximal ACh-evoked current” value worked out at 24%. The “inhibition of the ACh-evoked current by sustained exposure” value was “insensitive; also recorded: no significant inhibition” at human alpha3beta4 nAChRs [3] (dihydrate), “marked inhibition; also recorded: inhibits in a concentration-dependent manner” in assay [6], “marked inhibition; also recorded: inhibits in a concentration-dependent manner” on human alpha4beta2 nAChRs [7] and “insensitive; also recorded: no significant inhibition” at human alpha7 nAChRs.
